Laboratory results taken from patent US20020035061A1, “COMPOSITIONS AND METHODS FOR TREATING INFECTIONS USING CATIONIC PEPTIDES ALONE OR IN COMBINATION WITH ANTIBIOTICS” (priority 1996, published 2002).
Where two headings read alike, the source gives them in different places.

Key:
Type in all cases: cell-based
[1] = tested on: inherently resistant microorganisms; experiment: microbe, parasite or virus in culture; conditions: S. aureus MRSA
[2] = tested on: P. aeruginosa; conditions: P. aeruginosa strain PA006
[3] = tested on: S. aureus; conditions: S. aureus strain SA012
[4] = tested on: A. calcoaceticus; conditions: A. calcoaceticus strain AC001
[5] = tested on: S. maltophilia; conditions: S. maltophilia strain SMA001
[6] = tested on: K. pneumoniae; conditions: K. pneumoniae strain KP001
[7] = tested on: S. pyogenes; experiment: Agarose dilution assay (MIC); conditions: S. pyogenes strain SPY006
[8] = tested on: H. influenzae; experiment: Agarose dilution assay (MIC)
[9] = tested on: S. pneumoniae; experiment: Agarose dilution assay (MIC)
[10] = tested on: S. marcescens
[11] = tested on: microorganisms with acquired resistance; experiment: microbe, parasite or virus in culture; conditions: for Peptide MIC Alone: Piperacillin section; for FIC: peptide + Piperacillin
[12] = tested on: E. cloacae; conditions: E. cloacae strain ECL006
[13] = tested on: E. faecalis; conditions: E. faecalis strain EFS002
[14] = tested on: E. coli; conditions: E. coli strain ECO005
[15] = tested on: S. epidermidis; conditions: S. epidermidis strain SE002
[16] = tested on: bacterial isolates; experiment: microbe, parasite or virus in culture; conditions: for Peptide MIC Alone: Piperacillin section; for FIC: peptide + Piperacillin
[17] = tested on: E. faecium; conditions: E. faecium strain EFM001

ILKKWPWWPWRR [MBI 11G7CN]
Peptide MIC + Piperacillin [1]: 2 µg/mL | Peptide MIC Alone ([1]; Piperacillin section): 8 µg/mL | FIC ([1]; peptide + Piperacillin): 0.25 | MIC [2]: >128 µg/mL | MIC [3]: 2 µg/mL | MIC [4]: 128 µg/mL | MIC [5]: 32 µg/mL | MIC [6]: 16 µg/mL | MIC [7]: 16 µg/mL | MIC ([8]; H. influenzae strain HIN002): >128 µg/mL | MIC ([8]; H. influenzae strain SBHIN2): >128 µg/mL | MIC ([9]; S. pneumoniae strain SBSPN2): >128 µg/mL | MIC ([9]; S. pneumoniae strain SPN044): >128 µg/mL | MIC ([10]; S. marcescens strain SBSM1): >128 µg/mL | MIC ([10]; S. marcescens strain SMS003): >128 µg/mL | Peptide MIC + Piperacillin ([11]; A. calcoaceticus 3): 32 µg/mL | Piperacillin MIC + Peptide ([11]; A. calcoaceticus 3): 16 µg/mL | Peptide MIC Alone ([11]; A. calcoaceticus 3): 64 µg/mL | Peptide MIC + Piperacillin ([11]; H. influenzae 1): 64 µg/mL | Piperacillin MIC + Peptide ([11]; H. influenzae 1): 16 µg/mL | Peptide MIC Alone ([11]; H. influenzae 1): >128 µg/mL | Peptide MIC + Piperacillin ([11]; P. aeruginosa 7): 64 µg/mL | Piperacillin MIC + Peptide ([11]; P. aeruginosa 7): 64 µg/mL | Peptide MIC Alone ([11]; P. aeruginosa 7): >128 µg/mL | Peptide MIC + Piperacillin ([11]; P. aeruginosa 23): 1 µg/mL | Piperacillin MIC + Peptide ([11]; P. aeruginosa 23): 64 µg/mL | Peptide MIC Alone ([11]; P. aeruginosa 23): >128 µg/mL | Peptide MIC + Piperacillin ([11]; S. maltophilia 2): 16 µg/mL | Piperacillin MIC + Peptide ([11]; S. maltophilia 2): 16 µg/mL | Peptide MIC Alone ([11]; S. maltophilia 2): 64 µg/mL | Peptide MIC + Piperacillin ([11]; S. marcescens 1): 1 µg/mL | Piperacillin MIC + Peptide ([11]; S. marcescens 1): 16 µg/mL | Peptide MIC Alone ([11]; S. marcescens 1): >128 µg/mL | FIC ([11]; A. calcoaceticus 3): 0.63 | FIC ([11]; H. influenzae 1): 0.75 | FIC ([11]; P. aeruginosa 7): 0.50 | FIC ([11]; P. aeruginosa 23): 0.50 | FIC ([11]; S. maltophilia 2): 0.75 | FIC ([11]; S. marcescens 1): 0.25 | MIC [12]: 64 µg/mL | MIC [13]: 32 µg/mL | MIC [14]: 8 µg/mL | MIC [15]: 2 µg/mL | Peptide MIC + Piperacillin ([16]; A. calcoaceticus 3): 16 µg/mL | Piperacillin MIC + Peptide ([16]; A. calcoaceticus 3): 32 µg/mL | Peptide MIC Alone ([16]; A. calcoaceticus 3): 64 µg/mL | Peptide MIC + Piperacillin ([16]; H. influenzae SB1): 4 µg/mL | Piperacillin MIC + Peptide ([16]; H. influenzae SB1): 0.25 µg/mL | Peptide MIC Alone ([16]; H. influenzae SB1): >128 µg/mL | Peptide MIC + Piperacillin ([16]; P. aeruginosa 7): 64 µg/mL | Piperacillin MIC + Peptide ([16]; P. aeruginosa 7): 64 µg/mL | Peptide MIC Alone ([16]; P. aeruginosa 7): >128 µg/mL | Peptide MIC + Piperacillin ([16]; P. aeruginosa 23): 1 µg/mL | Piperacillin MIC + Peptide ([16]; P. aeruginosa 23): 64 µg/mL | Peptide MIC Alone ([16]; P. aeruginosa 23): >128 µg/mL | Peptide MIC + Piperacillin ([16]; S. aureus 18 MRSA): 8 µg/mL | Piperacillin MIC + Peptide ([16]; S. aureus 18 MRSA): 64 µg/mL | Peptide MIC Alone ([16]; S. aureus 18 MRSA): 32 µg/mL | Peptide MIC + Piperacillin ([16]; S. aureus 19 MRSA): 0.5 µg/mL | Piperacillin MIC + Peptide ([16]; S. aureus 19 MRSA): 64 µg/mL | Peptide MIC Alone ([16]; S. aureus 19 MRSA): 8 µg/mL | Peptide MIC + Piperacillin ([16]; S. marcescens 1): 1 µg/mL | Piperacillin MIC + Peptide ([16]; S. marcescens 1): 16 µg/mL | Peptide MIC Alone ([16]; S. marcescens 1): >128 µg/mL | FIC ([16]; A. calcoaceticus 3): 0.50 | FIC ([16]; H. influenzae SB1): 0.52 | FIC ([16]; P. aeruginosa 7): 0.50 | FIC ([16]; P. aeruginosa 23): 0.50 | FIC ([16]; S. aureus 18 MRSA): 0.50 | FIC ([16]; S. aureus 19 MRSA): 0.56 | FIC ([16]; S. marcescens 1): 0.25 | MIC [17]: 8 µg/mL
